Patent publication US20240390374A1, “MOCETINOSTAT IN COMBINATION WITH CHEMOTHERAPY TO TREAT RHABDOMYOSARCOMA” (The Regents of the University of California, priority 2021, published 2024)

Columns and labels:
[1] = test system: follicular lymphoma and diffuse large B cell lymphoma; conditions: cited from earlier work
[2] = test system: CYP2E1, CYP3A, CYP2C8, CYP2C19; conditions: cited from earlier work
[3] = test system: solid tumors; conditions: three times per week, with gemcitabine; cited from earlier work
[4] = test system: refractory and/or recurrent rhabdomyosarcoma; format: in vivo, human; conditions: dose escalation phase; orally 3 times weekly with vinorelbine 25 mg/m2 IV day 1, 8, 15 of 21 day cycles
Procedure: Methods: This is an investigator initiated Phase 1 single center, open-label, dose escalation/expansion clinical trial. A modified intent to treat approach is used for efficacy analysis for a target accrual of 20 subjects in the dose expansion cohort. Eligibility criteria include subjects >/=18 years old (yo) for the phase 1 dose escalation cohort and >/=12 years old for the phase 1 dose expansion cohort with a diagnosis of R/R RMS. Mocetinostat 40 mg, 70 mg or 90 mg was taken orally 3 times weekly with vinorelbine 25 mg/m2 IV on day 1,8, and 15 in 21 day cycles. PEG-filgrastim or biosimilar was added if subject experienced grade 3/4 neutropenia in a prior cycle. The maximum tolerated dose of mocetinostat in the dose escalation phase was 40 mg, which was selected as the dose for expansion cohort. Subjects were treated until disease progression by RECIST 1.1 or unacceptable toxicity.

[5] = human, in vivo; cited from earlier work
[6] = test system: Rhabdomyosarcoma cell lines; experiment: IC50 for mocetinostat across individual cell lines from different sarcoma subtypes (FIG. 1); format: cell-based
[7] = target: CYP2C9 (Homo sapiens, UniProt P11712); conditions: cited from earlier work
[8] = target: P-gp (Homo sapiens, UniProt P08183); conditions: cited from earlier work
[9] = test system: advanced solid tumors; conditions: cited from earlier work
[10] = cited from earlier work
[11] = in vivo; cited from earlier work
[12] = orally three times per week for 2 of every 3 weeks

CYP2C9, sequence (P11712 whole entry): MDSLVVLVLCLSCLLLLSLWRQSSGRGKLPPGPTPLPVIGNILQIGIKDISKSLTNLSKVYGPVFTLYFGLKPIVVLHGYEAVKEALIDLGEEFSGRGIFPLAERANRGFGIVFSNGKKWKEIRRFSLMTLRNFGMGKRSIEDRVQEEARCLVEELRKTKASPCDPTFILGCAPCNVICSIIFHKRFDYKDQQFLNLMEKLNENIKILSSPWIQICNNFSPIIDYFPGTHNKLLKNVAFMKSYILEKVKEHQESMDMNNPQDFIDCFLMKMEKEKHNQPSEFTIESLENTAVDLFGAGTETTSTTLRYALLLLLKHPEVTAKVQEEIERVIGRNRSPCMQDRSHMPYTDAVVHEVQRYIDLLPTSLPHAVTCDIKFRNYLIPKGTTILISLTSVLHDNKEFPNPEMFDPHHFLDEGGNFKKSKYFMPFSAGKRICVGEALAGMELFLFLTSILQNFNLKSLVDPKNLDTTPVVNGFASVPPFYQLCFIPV
P-gp, sequence (P08183 whole entry): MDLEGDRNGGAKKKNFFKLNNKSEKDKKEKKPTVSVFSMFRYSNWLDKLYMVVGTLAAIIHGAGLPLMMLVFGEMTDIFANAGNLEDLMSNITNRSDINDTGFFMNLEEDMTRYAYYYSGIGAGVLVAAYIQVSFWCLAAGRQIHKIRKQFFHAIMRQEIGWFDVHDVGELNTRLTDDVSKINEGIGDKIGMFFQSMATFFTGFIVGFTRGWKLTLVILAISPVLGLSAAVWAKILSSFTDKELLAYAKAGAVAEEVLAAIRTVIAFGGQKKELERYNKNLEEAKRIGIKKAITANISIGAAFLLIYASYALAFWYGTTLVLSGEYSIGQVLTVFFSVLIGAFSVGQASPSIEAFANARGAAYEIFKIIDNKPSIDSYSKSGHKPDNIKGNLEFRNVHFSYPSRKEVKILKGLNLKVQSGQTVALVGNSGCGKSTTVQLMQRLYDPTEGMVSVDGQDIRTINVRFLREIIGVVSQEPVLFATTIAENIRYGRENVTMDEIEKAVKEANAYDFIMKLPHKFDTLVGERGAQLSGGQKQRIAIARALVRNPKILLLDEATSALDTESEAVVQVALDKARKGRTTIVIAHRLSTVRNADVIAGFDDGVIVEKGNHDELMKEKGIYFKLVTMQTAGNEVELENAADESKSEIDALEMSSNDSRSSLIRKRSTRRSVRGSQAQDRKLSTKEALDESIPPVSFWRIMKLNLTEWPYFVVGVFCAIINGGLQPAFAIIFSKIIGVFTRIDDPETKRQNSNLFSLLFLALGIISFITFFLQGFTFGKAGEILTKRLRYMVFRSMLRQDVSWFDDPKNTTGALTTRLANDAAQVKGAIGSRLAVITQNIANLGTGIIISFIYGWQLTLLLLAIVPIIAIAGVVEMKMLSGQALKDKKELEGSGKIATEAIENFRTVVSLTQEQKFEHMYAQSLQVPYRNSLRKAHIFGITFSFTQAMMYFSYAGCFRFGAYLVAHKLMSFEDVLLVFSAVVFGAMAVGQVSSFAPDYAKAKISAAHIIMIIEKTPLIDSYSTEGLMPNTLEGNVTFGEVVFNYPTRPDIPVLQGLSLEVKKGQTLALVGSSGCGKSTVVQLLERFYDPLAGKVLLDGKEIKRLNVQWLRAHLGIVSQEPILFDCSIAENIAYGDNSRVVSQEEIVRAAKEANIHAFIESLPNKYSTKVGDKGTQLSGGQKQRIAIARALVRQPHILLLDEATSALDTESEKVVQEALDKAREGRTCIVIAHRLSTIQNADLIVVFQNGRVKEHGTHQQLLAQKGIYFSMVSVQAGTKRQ

## Nc1ccccc1NC(=O)c1ccc(CNc2nccc(-c3cccnc3)n2)cc1 [mocetinostat]
[1]; 5 events: pericardial effusion, pericarditis, cardiac tamponade
  patients with pericardial events considered related to mocetinostat: four
[1]; 70-110 mg three times a week
  Grade ≥3 treatment-related fatigue: 23.6%
  Grade ≥3 treatment-related neutropenia: 15.3%
  Grade ≥3 treatment-related thrombocytopenia: 12.5%
[1]; 72 patients, starting doses 70-110 mg three times a week, 4 week cycles
  patients with Grade ≥3 treatment-related AEs: 56.9%
[2]
  metabolizing enzymes: metabolized by CYP2E1 and CYP3A and possibly by CYP2C8 and CYP2C19
[3]
  MTD/RP2D of mocetinostat: 90 mg
[4]
  maximum tolerated dose of mocetinostat: 40 mg
[5]
  Half-life of elimination: about 10 hours
  accumulation with repeated dosing: little to no accumulation
[6]
  IC50: < 100 nM
[7]
  CYP2C9 inhibition: strong CYP2C9 inhibitor
[8]
  P-gp interaction: a substrate and an inhibitor of P-gp
[9]; at the 45 mg/m2/day dose
  patients with dose limiting toxicities (DLTs): 27%
[9]; effect of low pH beverages
  PK interpatient variability: interpatient variability which improved when mocetinostat was coadministered with low pH beverages
[9]; human, in vivo
  hematologic AEs: no hematologic AEs
[9]; [12]
  MTD/RP2D as equivalent fixed dose: about 90 mg/day
  maximum tolerated dose (MTD)/recommended phase II dose (RP2D): 45 mg/m2/day

## CCC1=C[C@@H]2CN(C1)Cc1c([nH]c3ccccc13)[C@@](C(=O)OC)(c1cc3c(cc1OC)N(C)[C@H]1[C@@](O)(C(=O)OC)[C@H](OC(C)=O)[C@]4(CC)C=CCN5CC[C@]31[C@@H]54)C2 [vinorelbine, methyl (1R,9R,10S,11R,12R,19R)-11-acetyloxy-12-ethyl-4-[(12S,14R)-16-ethyl-12-methoxycarbonyl-1,10-diazatetracyclo[12.3.1.03,11.04,9]octadeca-3(11),4,6,8,15-pentaen-12-yl]-10-hydroxy-5-methoxy-8-methyl-8,16-diazapentacyclo[10.6.1.01,9.02,7.016,19]nonadeca-2,4,6,13-tetraene-10 carboxylate]
[10]; at temperatures up to 25° C. (77° F.)
  stability of unopened vials: up to 72 hours
[10]; normal room light, polypropylene syringes or polyvinyl chloride bags at 5-30° C.
  time diluted vinorelbine may be used: up to 24 hours
[11]
  grade II-IV nausea and vomiting: < 10%
  grade III-IV neurotoxicity: rare
